Columns and labels:
[1] = Trial of L-Dopa with C60 and mitochondrial fusion; assay type: in vivo, human; conditions: one subject
Procedure: In some embodiments, the amino acid L-Dopa is administered with a mitochondrial fusion promoter to stimulate the proliferation of SCs. In some embodiments it is used with C60 and/or with a demethylase promoter. In some embodiments it is used with glutamine. […] Treatment with L-Dopa may be combined with 5-HTP and/or SRIs for a full spectrum effect.

[2] = system: epigenetic age (methylation patterns of gene markers from buccal cells); assay: Epigenetic age tests in AR (Age Regression) trials of the stem cell regime; assay type: in vivo, human
Excerpt: Test subject's epigenetic age results are summarized below in the table of AR (Age Regression) trials: The second column of Table 1 reports the difference between epigenetic and chronological age; the third column reports the weeks of treatment, wherein there was at least one fusion cycle per week and generally two […] cycles initially, decreasing to the end of this period to one treatment every week or two; the fourth column reports the total elapsed time from baseline; the fifth column reports the regimes used; and the sixth column reports the nutritional cocktails. Several companies are presently offering epigenetic tests that purport to give epigenetic age that generally closely correlates with chronological age. The subject had taken a test offered by Osiris Green two months prior beginning treatment. […] This was in spite of their prior use of C60 for several years outside of the regime. […] This was far outside the expected range. […] It appears that using a demethylase promoter during stem cell stimulation produces a far more rapid decline in epigenetic age, as removing aberrant methylation is easiest during cell division. The epigenetic testing labs used—Osirus Green, TrueMe, EpiAging and Epimorphy—all used different sets of genes, yet results were within a few years for samples taken at the same time. […] It was initially hypothesized that any negative impact would be minimal if used only with mitochondrial switches, but the telomeres of rapidly dividing TACs were likely also lengthened, and this blocked TAC senescence and replacement. Since TACs divide frequently, they also experience rapid epigenetic aging, thus somatic cells derived from TACs with telomeres extended by an agonist reach higher epigenetic age that would ordinarily be possible.

[3] = cited from earlier work; for half-life: stated in words
[4] = mice, intraperitoneal injection; cited from earlier work

## N[C@@H](Cc1ccc(O)c(O)c1)C(=O)O [L-Dopa, Levodopa]
[1]
  tremors: eliminated tremors

## CC(C)(O)[C@@H]1CC[C@](C)([C@H]2[C@@H](O)C[C@@]3(C)[C@@H]4C[C@H](O)[C@H]5C(C)(C)[C@@H](O)CC[C@@]56C[C@@]46CC[C@]23C)O1 [cycloasragenol, cycloastragenol]
[2]; telomere agonist every fourth treatment
  effect on epigenetic age: did not show the same negative effects
[2]; telomere agonist with every C60/mitochondrial switches treatment
  effect on epigenetic age: rapidly increase epigenetic age

## O=C1c2c(O)cc(O)cc2O[C@H](c2cc(O)c(O)c(O)c2)[C@H]1O [dihydromyricetin, Dihydromyricetin]
[3]; Liu et al. 2019
  time to elimination from the body: about 12 hours

## Oc1ccc(C=Cc2cc(O)cc(O)c2)cc1 [resveratrol]
[2]; 300 mg of resveratrol one hour before C60, one treatment per week for 8 weeks
  epigenetic age below chronological age: 14.6 years

## CCCCCCCCCCCCCCCCCC(=O)O [stearic acid]
[3]
  half-life: ten to twelve hours

## C[S+]([O-])CCCCN=C=S (stereo not shown) [sulforaphane]
[3]; in vivo
  time to peak in the bloodstream: ≥ 15 min
[3]
  half-life: about an hour
[4]
  duration of activity: approximately sixty minutes
  time to maximum activity: 15 min

Source: patent US11541022B2, “Methods and compositions for the treatment of neurological diseases and syndromes of aging” (priority 2018, dated 2023)
